Source: patent publication US6780876B2, “Composition for keeping away vermin” (Novartis Animal Health US, Inc., priority 1998, dated 2004)

How the values were obtained:
[1] = test system: ticks; assay: Arena test method for testing vermin-deterring substances; format: in vivo; settings: 1 to 100 μg/cm^2 on filter paper; video evaluation against solvent control and DEET standard
Experimental: Arena Test Method for Testing Vermin-deterring Substances
(§1) This method is carried out in titre plates having 6 wells with a cross-section of 5 cm each, using a computer-supported video system. Each well of the titre plate is lined with a circular filter paper or another suitable carrier material. The substance of formula I to be tested is dissolved in methanol, acetonitrile or another suitable solvent, with ultrasound treatment and heating being employed for poorly-soluble substances. In an amount of 1 to 100 μg/cm^2, the dissolved test substance is placed in the centre of the filter paper on a quadrant or circular area of ca. 2.4 cm^2 radius. 4 of the 6 wells are filled with different test substances or with the same test substance in different dilutions (e.g. 1, 3.2, 5, 10 and 20 μg/cm^2). The 5th well is treated with DEET (N,N-diethyl-m-toluamide) as standard substance. The 6th well is filled with the pure solvent and serves as a control. 60 to 100 larvae or 25 to 50 nymphs or 10 to 25 adults of the parasite to be tested, e.g. ticks, are added to each filter paper, and the system is covered with a pane of glass and positioned under a video camera. At intervals of 5 seconds, the video camera takes individual pictures of all 6 wells. For a qualitative evaluation, these images are observed in a time-lapse as a continuous film, optically following the movements of the parasites on the filter paper and comparing them with the movements in the control well no. 6 or with the standard in the 5th well. A qualitative observation is thus made as to whether the test parasites move evenly over the whole surface of the filter paper and ignore the test substance, or whether and over what period they avoid the treated zone, and what influence the dilution of the test substance has on the behaviour of the test parasites. In this way, neutral and deterring substances are determined. At the same time, the duration of activity of the test substance is determined and compared with that of the standard. By plotting all the images for each individual well over one another, different areas of density are obtained. This represents the frequency at which the parasites visit certain places. This frequency is evaluated statistically and thus quantitatively by the Willcoxon method in a comparison with the control and with the standard. Compounds of Table 1, for example nos.

[2] = test system: Rhipicephalus Sanguineus (nymphs); assay: Arena test in vitro against Rhipicephalus sanguineus (nymphs); format: in vivo; settings: even up to a dilution of 10 μg/cm^2
Experimental: as §1, with “For a qualitative evaluation, these images are observed in a time-lapse as a continuous film, optically following the movements of the parasites on the filter paper and comparing them with the movements in the control well no.” left out, “A qualitative observation is thus made as to whether the test parasites move evenly over the whole surface of the filter paper and ignore the test substance, or whether and over what period they avoid the treated zone, and what influence the dilution of the test substance has on the behaviour of the test parasites.” left out, “standard.” for “standard. Compounds of Table 1, for example nos.”
Arena Test in vitro Against Rhipicephalus Sanguineus (nymphs)
A test is carried out analogously to example B using ca. 40 to 50 nymphs.

[3] = test system: Boophilus Microplus Biarra (larvae); assay: Arena test in vitro against Boophilus microplus Biarra (larvae); format: in vivo; settings: even up to a dilution of 10 μg/cm^2
Experimental: as §1, with “For a qualitative evaluation, these images are observed in a time-lapse as a continuous film, optically following the movements of the parasites on the filter paper and comparing them with the movements in the control well no.” left out, “A qualitative observation is thus made as to whether the test parasites move evenly over the whole surface of the filter paper and ignore the test substance, or whether and over what period they avoid the treated zone, and what influence the dilution of the test substance has on the behaviour of the test parasites.” left out, “standard.” for “standard. Compounds of Table 1, for example nos.”
Arena Test in vitro Against Boophilus Microplus Biarra (larvae)
The test is carried out as described above, with ca. 60 to 100 larvae being added per well. 10 mg of dissolved test substance is applied to an area of 2.4 cm^2 radius.

[4] = test system: Amblyomma Hebraeum or Variegatum (nymphs); assay: Arena test in vitro against Amblyomma hebraeum or variegatum (nymphs); format: in vivo; settings: even up to a dilution of 3.2 μg/cm^2
Experimental: as §1
Arena Test in vitro Against Amblyomma Hebraeum or Variegatum (nymphs)
The test is carried out as described above, with ca. 25 to 50 nymphs being added per well. 10 mg of dissolved test substance is applied to an area of 2.4 cm^2 radius. […] 1.26 to 1.36, 1.40, 1.45, 1.47, 1.95, 1.96, 1.97, 1.137, and 1.139, even up to a dilution of 3.2 μg/cm^2.

[5] = test system: certain plant damaging insects; settings: cited from earlier work

CC(C)c1ccc(C(O)C2CCCCN2C)cc1 (stereo not drawn) [Compound 1.96, N-methyl-2-[(1-[4-isopropylphenyl])(1-hydroxy)methyl]-piperidine]
vermin-deterring activity in the arena test [1]: excellent activity | long-term deterring activity [2]: Particularly marked long-term activity | long-term deterring activity [3]: Particularly marked long-term activity | long-term deterrent activity [4]: Particularly marked long-term activity

Cc1ccc(C(O)C2CCCCN2C)cc1 (stereo not drawn) [Compound 1.87, N-methyl-2-[(1-[4-methylphenyl])-(1-hydroxy)methyl]piperidine]
vermin-deterring activity in the arena test [1]: excellent activity

CCCCCCCCCCC(O)C1CCCCN1C(=O)OCC (stereo not drawn) [Compound 1.141, N -ethoxycarbonyl--2-[(1-hydroxy)(1-undecycl)]piperidine]
long-term deterring activity [3]: Particularly marked long-term activity

OC[C@H]1NC[C@H](O)[C@@H](O)[C@@H]1O [deoxynojirimicin]
activity as a deterrent [5]: slight activity

CCCCCCCCCCC(O)C1CCCCN1C(C)=O (stereo not drawn) [Compound 1.140, N-acetyl-2-[(1-hydroxy)(1-undecyl)]piperidine]
long-term deterring activity [3]: Particularly marked long-term activity

OC(COCc1ccccc1)C1CCCCN1 (stereo not drawn) [Compound 1.137]
vermin-deterring activity in the arena test [1]: excellent activity | long-term deterring activity [2]: Particularly marked long-term activity | long-term deterring activity [3]: Particularly marked long-term activity | long-term deterrent activity [4]: Particularly marked long-term activity

CN1CCCCC1C(O)c1ccccc1 (stereo not drawn) [Compound 1.45, N-me-thyl-2-[(1-phenyl)(1-hydroxy)methyl]piperidine]
vermin-deterring activity in the arena test [1]: excellent activity | long-term deterring activity [2]: Particularly marked long-term activity | long-term deterring activity [3]: Particularly marked long-term activity | long-term deterrent activity [4]: Particularly marked long-term activity

COc1ccc(C(O)C2CCCCN2)cc1 (stereo not drawn) [Compound 1.97, 2-[(1-[4-methoxyphenyl])(1-hydroxy)methyl]piperidine]
vermin-deterring activity in the arena test [1]: excellent activity | long-term deterring activity [3]: Particularly marked long-term activity | long-term deterrent activity [4]: Particularly marked long-term activity

OC(c1ccccc1)C1CCCCN1 (stereo not drawn) [Compound 1.40, 2-[(1-phenyl)(1-hydroxy)methyl]piperidine]
long-term deterring activity [2]: Particularly marked long-term activity | long-term deterring activity [3]: Particularly marked long-term activity | long-term deterrent activity [4]: Particularly marked long-term activity

CCCCCCCCCCCCCCC(O)C1CCCCN1 (stereo not drawn) [Compound 1.32, 2-[n-(1-hydroxypentade-cyl)]piperidine]
long-term deterring activity [2]: Particularly marked long-term activity

CCCCCCCCCCCCCCCCC(O)C1CCCCN1 (stereo not drawn) [Compound 1.34, 2-[n-(1-hydroxyheptadecyl)]piperidine]
long-term deterring activity [2]: Particularly marked long-term activity

CC(C)c1ccc(C(O)C2CCCCN2)cc1 (stereo not drawn) [Compound 1.95, 2-[(1-[4-isopropyl-phenyl])(1-hydroxy)methyl]piperidine]
vermin-deterring activity in the arena test [1]: excellent activity | long-term deterring activity [3]: Particularly marked long-term activity | long-term deterrent activity [4]: Particularly marked long-term activity

Cc1ccc(C(O)C2CCCCN2)cc1 (stereo not drawn) [Compound 1.89, 2-[(1-[4-methylphenyl])(1-hydroxy)methyl]piperidine]
vermin-deterring activity in the arena test [1]: excellent activity

CC1(C)CCCC(C(O)c2ccc(Cl)cc2)N1 (stereo not drawn) [Compound 1.139, 6,6-dimethyl-2-[(1-[4-chlorphenyl])(1-hydroxy)methyl]piperidine]
vermin-deterring activity in the arena test [1]: excellent activity | long-term deterring activity [2]: Particularly marked long-term activity | long-term deterring activity [3]: Particularly marked long-term activity | long-term deterrent activity [4]: Particularly marked long-term activity

CCCCCCCCCCCCC(O)C1CCCCN1 (stereo not drawn) [Compound 1.29, 2-[n-(1-hydroxytridecyl)]piperidine]
long-term deterring activity [2]: Particularly marked long-term activity

CCCCCCCCCCCCCCCCCCC(O)C1CCCCN1 (stereo not drawn) [Compound 1.36, 2-[n-(1-hydroxynonadecyl)]piperidine]
long-term deterring activity [2]: Particularly marked long-term activity

OC(c1ccccc1)C1CCCCN1 (stereo not drawn) [Compound 1.44, 2-[(1-phenyl)(1-hydroxy)methyl]piperidine]
vermin-deterring activity in the arena test [1]: excellent activity

CCCCCCCCCCC(O)C1CCCCN1 (stereo not drawn) [Compound 1.27, 2-[n-(1-hydroxyundecyl)]piperidine]
long-term deterring activity [2]: Particularly marked long-term activity

CC1(C)CCCC(C(O)c2ccc(Cl)cc2)N1 (stereo not drawn) [Compound 1.101, 6,6-dimethyl-2-[(1-[4-chlorphenyl])(1-hydroxy)methyl]piperidine]
vermin-deterring activity in the arena test [1]: excellent activity

OC(c1ccccc1)(c1ccc2c(c1)CCO2)C1CCCCN1 (stereo not drawn) [Compound 1.59]
vermin-deterring activity in the arena test [1]: excellent activity | long-term deterring activity [2]: Particularly marked long-term activity
